The test system of the test is BV-2 cells. Put plainly: Griess assay of LPS-induced nitrite release in BV-2 cells. It is filed as cell-based. The settings on record: BV-2 cells, Griess assay; expressed as percentages of the nitrite level produced upon DMSO treatment (100%). Here is the method:
Cells increase the secretion of nitrite when induced to be inflammatory, but decrease the secretion of nitrite in the presence of an anti-inflammatory agent. […] Cells were treated with the compounds in the absence or presence of 100 ng/mL LPS (lipopolysaccharide). After 24 hrs of incubation, the cell culture media were reacted with Griess reagent (0.1% naphthylethylenediamine dihydrochloride and 1% sulfanilamide in 2% phosphoric acid). Absorbance was measured at 550 nm using a microplate reader, and the level of nitrite was estimated by comparison with a sodium nitrite standard curve.

`CC1(C)Oc2cc(O)ccc2C2C1=CCn1c(=O)n(C3CCCCC3)c(=O)n12` (centres unmarked) [Chemical Formula 3]: the “NO inhibition (%)” value was determined as 38.0%.

On to `Cn1c(=O)n2n(c1=O)C1C(=CC2)C(C)(C)Oc2cc(O)ccc21` (centres unmarked) [Chemical Formula 4], for which the “NO inhibition (%)” value turned out to be 75.0%.

Turning to `CC1(C)Oc2cc(O)ccc2C2C1=CCn1c(=O)n(Cc3ccccc3)c(=O)n12` (centres unmarked) [Chemical Formula 5], the “NO inhibition (%)” value came to 63.0%.

Consider `Cc1ccc(-n2c(=O)n3n(c2=O)C2C(=CC3)C(C)(C)Oc3cc(O)ccc32)cc1` (centres unmarked) [Chemical Formula 6], for which the “NO inhibition (%)” value is 41.8%.

As to `CC1(C)Oc2cc(O)ccc2C2C1=CCn1c(=O)n(-c3ccc(C(C)(C)C)cc3)c(=O)n12` (centres unmarked) [Chemical Formula 7], the “NO inhibition (%)” value is on record as 92.1%.

As to `COc1ccc(-n2c(=O)n3n(c2=O)C2C(=CC3)C(C)(C)Oc3cc(O)ccc32)cc1` (centres unmarked) [Chemical Formula 8], the “NO inhibition (%)” value stood at 77.7%.

On to `COc1cccc(-n2c(=O)n3n(c2=O)C2C(=CC3)C(C)(C)Oc3cc(O)ccc32)c1` (centres unmarked) [Chemical Formula 9], for which the “NO inhibition (%)” value is recorded as 90.8%.

As to `CC1(C)Oc2cc(O)ccc2C2C1=CCn1c(=O)n(-c3ccc(F)cc3)c(=O)n12` (centres unmarked) [Chemical Formula 10], the “NO inhibition (%)” value was 76.4%.

On to `CC1(C)Oc2cc(O)ccc2C2C1=CCn1c(=O)n(-c3ccccc3I)c(=O)n12` (centres unmarked) [Chemical Formula 11], for which the “NO inhibition (%)” value is 55.2%.

Regarding `CC1(C)Oc2cc(O)ccc2C2C1=CCn1c(=O)n(-c3cccc([N+](=O)[O-])c3)c(=O)n12` (centres unmarked) [Chemical Formula 12], the “NO inhibition (%)” value came out at 70.4%.

With `O=c1n(-c2ccccc2)c(=O)n2n1CC=C1C2c2ccc(O)cc2OC12CCCC2` (centres unmarked) [Chemical Formula 13], the “NO inhibition (%)” value stood at 70.4%.

On to `O=c1n(C2CCCCC2)c(=O)n2n1CC=C1C2c2ccc(O)cc2OC12CCCC2` (centres unmarked) [Chemical Formula 14], for which the “NO inhibition (%)” value came to 48.8%.

Consider `Cn1c(=O)n2n(c1=O)C1C(=CC2)C2(CCCC2)Oc2cc(O)ccc21` (centres unmarked) [Chemical Formula 15], for which the “NO inhibition (%)” value was 41.4%.

As to `O=c1n(Cc2ccccc2)c(=O)n2n1CC=C1C2c2ccc(O)cc2OC12CCCC2` (centres unmarked) [Chemical Formula 16], the “NO inhibition (%)” value amounted to 53.2%.

For `Cc1ccc(-n2c(=O)n3n(c2=O)C2C(=CC3)C3(CCCC3)Oc3cc(O)ccc32)cc1` (centres unmarked) [Chemical Formula 17], the “NO inhibition (%)” value stood at 72.1%.

Regarding `CC(C)(C)c1ccc(-n2c(=O)n3n(c2=O)C2C(=CC3)C3(CCCC3)Oc3cc(O)ccc32)cc1` (centres unmarked) [Chemical Formula 18], the “NO inhibition (%)” value is reported as 99.7%.

As for `COc1ccc(-n2c(=O)n3n(c2=O)C2C(=CC3)C3(CCCC3)Oc3cc(O)ccc32)cc1` (centres unmarked) [Chemical Formula 19], the “NO inhibition (%)” value came out at 58.3%.

With `COc1cccc(-n2c(=O)n3n(c2=O)C2C(=CC3)C3(CCCC3)Oc3cc(O)ccc32)c1` (centres unmarked) [Chemical Formula 20], the “NO inhibition (%)” value stood at 63.0%.

As to `O=c1n(-c2ccc(F)cc2)c(=O)n2n1CC=C1C2c2ccc(O)cc2OC12CCCC2` (centres unmarked) [Chemical Formula 21], the “NO inhibition (%)” value stood at 58.7%.

Consider `O=c1n(-c2ccccc2I)c(=O)n2n1CC=C1C2c2ccc(O)cc2OC12CCCC2` (centres unmarked) [Chemical Formula 22], for which the “NO inhibition (%)” value came to 67.1%.

Turning to `O=c1n(-c2cccc([N+](=O)[O-])c2)c(=O)n2n1CC=C1C2c2ccc(O)cc2OC12CCCC2` (centres unmarked) [Chemical Formula 23], the “NO inhibition (%)” value came to 81.5%.

In the case of `CC1(C)Oc2cc(O)ccc2C2C1=CCn1c(=O)n(-c3ccc(Cl)cc3)c(=O)n12` (centres unmarked) [Chemical Formula 24], the “NO inhibition (%)” value was determined as 22.3%.

As for `O=c1n(-c2ccc(Cl)cc2)c(=O)n2n1CC=C1C2c2ccc(O)cc2OC12CCCC2` (centres unmarked) [Chemical Formula 25], the “NO inhibition (%)” value turned out to be 44.0%.

On to `CC1(C)Oc2cc(O)ccc2C2C1=CCn1c(=O)n(-c3ccccc3Cl)c(=O)n12` (centres unmarked) [Chemical Formula 26], for which the “NO inhibition (%)” value turned out to be 57.1%.

For `O=c1n(-c2ccccc2Cl)c(=O)n2n1CC=C1C2c2ccc(O)cc2OC12CCCC2` (centres unmarked) [Chemical Formula 27], the “NO inhibition (%)” value is reported as 44.8%.

Regarding `CC1(C)Oc2cc(O)ccc2C2C1=CCn1c(=O)n(-c3ccc(Br)cc3)c(=O)n12` (centres unmarked) [Chemical Formula 28], the “NO inhibition (%)” value is 58.4%.

As to `O=c1n(-c2ccc(Br)cc2)c(=O)n2n1CC=C1C2c2ccc(O)cc2OC12CCCC2` (centres unmarked) [Chemical Formula 29], the “NO inhibition (%)” value came out at 44.0%.

Turning to `Cn1c(=O)n2ccc3c(n2c1=O)-c1ccc(O)cc1OC3(C)C` [Chemical Formula 31], the “NO inhibition (%)” value is on record as 12.1%.

Turning to `CC1(C)Oc2cc(O)ccc2C2C1C=Cn1c(=O)n(-c3ccccc3)c(=O)n12` (centres unmarked) [Chemical Formula 32], the “NO inhibition (%)” value turned out to be 24.9%.

`O=c1n(-c2ccccc2)c(=O)n2n1CCC1C2c2ccc(O)cc2OC12CCCC2` (centres unmarked) [Chemical Formula 33]: the “NO inhibition (%)” value came out at 41.8%.

For the compound `COc1cccc(-n2c(=O)n3n(c2=O)C2c4ccc(O)cc4OC(C)(C)C2C=C3)c1` (centres unmarked) [Chemical Formula 34], the “NO inhibition (%)” value was found to be 4.9%.

Turning to `CC1(C)Oc2ccccc2C2C1=CCn1c(=O)n(-c3ccccc3)c(=O)n12` (centres unmarked) [Chemical Formula 35], the “NO inhibition (%)” value was found to be 1.2%.

In the case of `COc1ccc2c(c1)OC(C)(C)C1=CCn3c(=O)n(-c4ccccc4)c(=O)n3C12` (centres unmarked) [Chemical Formula 36], the “NO inhibition (%)” value stood at 3.2%.

With `CCOC(=O)CCC1(C)Oc2cc(O)ccc2C2C1=CCn1c(=O)n(-c3ccccc3)c(=O)n12` (centres unmarked) [Chemical Formula 39], the “NO inhibition (%)” value turned out to be 44.9%.

Take `CC1(C)Oc2cc(O)ccc2C2C1=CCn1c(=O)n(-c3ccc(C(F)(F)F)cc3)c(=O)n12` (centres unmarked) [Chemical Formula 47]: the “NO inhibition (%)” value stood at 36.0%.

As for `CC1(C)Oc2cc(O)ccc2C2C1=CCn1c(=O)n(-c3ccc(C(=O)c4ccccc4)cc3)c(=O)n12` (centres unmarked) [Chemical Formula 48], the “NO inhibition (%)” value worked out at 65.5%.

In the case of `COC(=O)CCC1(C)Oc2cc(O)ccc2C2C1=CCn1c(=O)n(-c3ccc(C)cc3)c(=O)n12` (centres unmarked) [Chemical Formula 49], the “NO inhibition (%)” value is recorded as 63.2%.

Take `CCNC(=O)CCC1(C)Oc2cc(O)ccc2C2C1=CCn1c(=O)n(-c3ccc(C)cc3)c(=O)n12` (centres unmarked) [Chemical Formula 51]: the “NO inhibition (%)” value was determined as 6.2%.

(Values after US9468641B2, “Anti-inflammatory pharmaceutical composition comprising benzopyranyl tetracycles” (SEOUL NATIONAL UNIVERSITY R&DB FOUNDATION, priority 2014, dated 2016).)
